In the supplement of paper PMC11451515:

Columns and labels:
NOMO1 = test: AUC of viability dose-response curve (% viability x log10 dose units); higher = less sensitive; details: 48 h
Outline: (§1)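 Over 48 h at 37°C, leukemia cells in 1536-well plates (500 or 1000 cells/well), adapted to each medium, received library compounds in DMSO at 11 threefold doses from 47 μM to 0.79 nM. CellTiter-Glo One luminescence, normalised per plate to DMSO and cell-free wells, was fitted by a four-parameter log-logistic function of log10 dose. The area under the curve was then integrated by trapezoidal rule, after scaling curves above full viability and removing those that failed quality control.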

P12-Ichikawa [1] = test: as above; details: 48 h
Outline: as §1

SEM cells [2] = test: as above; details: 48 h
Outline: as §1

P12-Ichikawa [3] = test: cell viability relative to DMSO control; higher = less cytotoxic; details: HPLM + 10% dialyzed FBS, 48 h
Outline: (§2)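 NOMO1 or SEM (500 cells/well) or P12-Ichikawa (1000 cells/well) leukemia cells were adapted for at least four passages in each medium. They were seeded in 1536-well plates (5 μl) and pin-dosed with library compounds in DMSO over an 11-point threefold series, 47 μM to 0.79 nM. CellTiter-Glo One luminescence was read after 48 h at 37°C. Viability is the per-plate percentage relative to DMSO wells, with cell-free wells as background.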

SEM cells [4] = test: as above; details: 48 h
Outline: as §2

C[C@@H]1C(=O)O[C@H]2CC34[C@H]5C[C@@H](C(C)(C)C)C36[C@@H](OC(=O)[C@@H]6O)O[C@@]4(C(=O)O5)[C@]21O (stereo partly drawn)
AUC of viability dose-response curve
Details	NOMO1	P12-Ichikawa [1]	SEM cells [2]
HPLM + 10% dialyzed FBS	431	447	465
RPMI 5 mM glucose + 10% FBS	460	462	467
RPMI 5 mM glucose + 10% dialyzed FBS	463	462	456

CCOC(=O)N1CCN(/[N+]([O-])=N/Oc2cc(O/N=[N+](\[O-])N3CCN(C(=O)OCC)CC3)c([N+](=O)[O-])cc2[N+](=O)[O-])CC1
Details	AUC of viability dose-response curve	cell viability [%]
NOMO1, HPLM + 10% dialyzed FBS	476	–
NOMO1, RPMI 5 mM glucose + 10% FBS	460	–
NOMO1, RPMI 5 mM glucose + 10% dialyzed FBS	463	–
P12-Ichikawa [1], HPLM + 10% dialyzed FBS	460	–
P12-Ichikawa [1], RPMI 5 mM glucose + 10% FBS	476	–
P12-Ichikawa [1], RPMI 5 mM glucose + 10% dialyzed FBS	450	–
P12-Ichikawa [3], 0.000781 µM	–	122
P12-Ichikawa [3], 0.00234 µM	–	123
P12-Ichikawa [3], 0.00702 µM	–	125
P12-Ichikawa [3], 0.0211 µM	–	123
P12-Ichikawa [3], 0.0632 µM	–	131
P12-Ichikawa [3], 0.19 µM	–	140
P12-Ichikawa [3], 0.569 µM	–	131
P12-Ichikawa [3], 1.71 µM	–	140
P12-Ichikawa [3], 5.12 µM	–	136
P12-Ichikawa [3], 15.4 µM	–	134
P12-Ichikawa [3], 46.1 µM	–	135
SEM cells [2], HPLM + 10% dialyzed FBS	449	–
SEM cells [2], RPMI 5 mM glucose + 10% FBS	464	–
SEM cells [2], RPMI 5 mM glucose + 10% dialyzed FBS	474	–

cell viability [%], SEM cells [4]
Details	HPLM + 10% dialyzed FBS	RPMI 5 mM glucose + 10% FBS	RPMI 5 mM glucose + 10% dialyzed FBS
0.000781 µM	90.7	129	117
0.00234 µM	86.6	110	113
0.00702 µM	93	118	130
0.0211 µM	98.6	137	145
0.0632 µM	117	142	166
0.19 µM	115	138	138
0.569 µM	122	136	134
1.71 µM	74.4	101	108
5.12 µM	119	142	113
15.4 µM	117	145	142
46.1 µM	116	128	122

NC(=O)N/N=C/c1ccc([N+](=O)[O-])o1
cell viability [%], SEM cells [4]
Details	HPLM + 10% dialyzed FBS	RPMI 5 mM glucose + 10% FBS
0.000781 µM	104	121
0.00234 µM	120	133
0.00702 µM	101	123
0.0211 µM	124	129
0.0632 µM	125	137
0.19 µM	122	142
0.569 µM	109	116
1.71 µM	122	140
5.12 µM	112	139
15.4 µM	126	161
46.1 µM	109	120

AUC of viability dose-response curve
Details	NOMO1	P12-Ichikawa [1]	SEM cells [2]
HPLM + 10% dialyzed FBS	455	470	472
RPMI 5 mM glucose + 10% FBS	441	435	453
RPMI 5 mM glucose + 10% dialyzed FBS	434	470	467

CN1CCc2c(n(Cc3ccc(C(=O)NO)cc3)c3ccccc23)C1
AUC of viability dose-response curve
Details	NOMO1	P12-Ichikawa [1]	SEM cells [2]
HPLM + 10% dialyzed FBS	452	448	443
RPMI 5 mM glucose + 10% FBS	440	453	442
RPMI 5 mM glucose + 10% dialyzed FBS	449	451	452

N=C(N)NC(=N)NCCc1ccccc1
AUC of viability dose-response curve
Details	NOMO1	P12-Ichikawa [1]	SEM cells [2]
HPLM + 10% dialyzed FBS	464	450	465
RPMI 5 mM glucose + 10% FBS	456	440	461
RPMI 5 mM glucose + 10% dialyzed FBS	455	438	444

COc1cc(C)c(/C=C/C(C)=C/C=C/C(C)=C/C(=O)O)c(C)c1C
AUC of viability dose-response curve
Details	NOMO1	P12-Ichikawa [1]	SEM cells [2]
HPLM + 10% dialyzed FBS	442	458	450
RPMI 5 mM glucose + 10% FBS	441	441	426
RPMI 5 mM glucose + 10% dialyzed FBS	420	455	450

CC1(COc2ccc3c(c2)ncn3-c2ccc3cccc(N4CCC(N)CC4)c3n2)COC1
cell viability [%], SEM cells [4]
Details	HPLM + 10% dialyzed FBS	RPMI 5 mM glucose + 10% FBS	RPMI 5 mM glucose + 10% dialyzed FBS
0.000781 µM	91.2	114	99.8
0.00234 µM	96.7	101	99.7
0.00702 µM	81.3	94	73.6
0.0211 µM	62.7	64.9	59.6
0.0632 µM	38.9	28.8	33.8
0.19 µM	56.3	49.8	51.1
0.569 µM	54.4	49.5	47.4
1.71 µM	44.1	40.5	48.2
5.12 µM	26.4	18.1	20
15.4 µM	28.7	16.4	20.2
46.1 µM	6.33	5.26	6.44

AUC of viability dose-response curve
Details	HPLM + 10% dialyzed FBS	RPMI 5 mM glucose + 10% FBS	RPMI 5 mM glucose + 10% dialyzed FBS
P12-Ichikawa [1]	392	403	418
SEM cells [2]	254	216	240

OC1=CC2=C(C(=C1)O)C(=O)\C(=C(/O2)C3=CC(=C(O)C(=C3)O)O)O
AUC of viability dose-response curve
Details	NOMO1	P12-Ichikawa [1]	SEM cells [2]
HPLM + 10% dialyzed FBS	451	454	462
RPMI 5 mM glucose + 10% FBS	470	471	460
RPMI 5 mM glucose + 10% dialyzed FBS	458	466	470
